The record followed here is patent US10899738B2 (THE REGENTS OF THE UNIVERSITY OF MICHIGAN, priority 2016, dated 2021).

Usually IC50 stands for the concentration needed to halve the response being measured.

Structures are written as SMILES.

For this experiment, the target named is menin protein (Homo sapiens (Human), UniProt O00255). Nature of the experiment: biochemical. The class given is binding. To be noted: FP competitive binding; menin protein 4 nM, FAM-MM2 probe 2 nM; read-out: Menin Binding Affinity IC50. The procedure, abridged: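 Test compounds displaced FAM-MM2 (2 nM) from 4 nM menin after 30 min equilibration at room temperature in PBS buffer containing bovine γ-globulin, 4% DMSO and Triton X-100. Binding was followed by fluorescence polarization. Competition curves were fitted by nonlinear regression to give IC50 and Ki.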
Sequence of menin protein (O00255 whole entry): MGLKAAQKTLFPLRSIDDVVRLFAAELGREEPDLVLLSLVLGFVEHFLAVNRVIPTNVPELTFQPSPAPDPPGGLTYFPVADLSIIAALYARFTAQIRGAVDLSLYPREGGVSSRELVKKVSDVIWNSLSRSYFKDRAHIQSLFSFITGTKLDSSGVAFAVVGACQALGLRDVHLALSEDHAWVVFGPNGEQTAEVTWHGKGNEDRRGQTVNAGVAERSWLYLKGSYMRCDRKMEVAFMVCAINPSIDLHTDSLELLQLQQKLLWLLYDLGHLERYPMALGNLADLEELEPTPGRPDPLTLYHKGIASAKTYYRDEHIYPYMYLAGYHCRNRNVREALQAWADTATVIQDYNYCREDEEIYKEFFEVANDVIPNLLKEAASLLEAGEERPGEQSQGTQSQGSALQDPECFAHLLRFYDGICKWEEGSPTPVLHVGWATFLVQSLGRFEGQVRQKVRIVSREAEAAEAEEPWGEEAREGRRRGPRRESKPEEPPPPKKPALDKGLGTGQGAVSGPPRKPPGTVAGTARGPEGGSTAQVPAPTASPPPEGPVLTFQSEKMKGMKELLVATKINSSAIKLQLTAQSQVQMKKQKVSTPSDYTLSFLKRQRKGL
Consider `CNC(=O)C[C@@H]1CCC[C@H]1C(C#N)(c1ccccc1)C1CCN(CC2CN(c3ccc(S(=O)(=O)c4ccncc4)cc3)C2)CC1` (mixture of isomers) [compound 339, rac-2-((1S,2R)-2-(cyano(phenyl)(1-((1-(4-(pyridin-4-ylsulfonyl)phenyl)azetidin-3-yl)methyl)piperidin-4-yl)methyl)cyclopentyl)-N-methylacetamide], for which the 50% inhibitory concentration (IC50) stood at 5200 nM.
For `CNC(=O)O[C@H]1CCC[C@@H]1C(C#N)(c1ccccc1)C1CCN(CC2CN(c3ccc(S(=O)(=O)C4CC4)cc3)C2)CC1` (mixture of isomers) [compound 226, rac-(1S,2R)-2-(cyano(1-((1-(4-(cyclopropylsulfonyl)phenyl)azetidin-3-yl)methyl)piperidin-4-yl)(phenyl)methyl)cyclopentyl methylcarbamate], the IC50 was 14 nM.
On to `N#CC(c1ccccc1)(C1CCN(CC2CN(c3ccc(S(=O)(=O)c4ccncc4)cc3)C2)CC1)[C@H]1CCC[C@@H]1OC(=O)C1CC1` (mixture of isomers) [compound 197, rac-(1S,2R)-2-(cyano(phenyl)(1-((1-(4-(pyridin-4-ylsulfonyl)phenyl)azetidin-3-yl)methyl)piperidin-4-yl)methyl)cyclopentyl cyclopropanecarboxylate], for which the 50% inhibitory concentration (IC50) was found to be 18 nM.
For `c1ccc(OCCCN2CCC(C3(C4CCCC4)NCCc4ccccc43)CC2)cc1` (stereo not drawn) [compound 76, 1-cyclopentyl-1-(1-(3-phenoxypropyl)piperidin-4-yl)-1,2,3,4-tetrahydroisoquinoline], the IC50 turned out to be 1300 nM.
On to `CC(=O)O[C@@H]1CCC[C@H]1C(C#N)(c1ccccc1)C1CCN(CC2CN(c3ccc(S(=O)(=O)c4ccnc(C)c4)cc3)C2)CC1` (mixture of isomers) [compound 200, rac-(1R,2S)-2-(cyano(1-((1-(4-((2-methylpyridin-4-yl)sulfonyl)phenyl)azetidin-3-yl)methyl)piperidin-4-yl)(phenyl)methyl)cyclopentyl acetate], for which the half-inhibitory concentration (IC50) was 17 nM.
For the compound `CC(=O)O[C@H]1CCC[C@@H]1C(C#N)(c1cccc(F)c1)C1CCN(CC2CN(c3ccc(S(=O)(=O)c4ccccc4)cc3)C2)CC1` (mixture of isomers) [compound 312, rac-(1S,2R)-2-(cyano(3-fluorophenyl)(1-((1-(4-(phenylsulfonyl)phenyl)azetidin-3-yl)methyl)piperidin-4-yl)methyl)cyclopentyl acetate], the IC50 was determined as 13 nM.
On to `CC(=O)O[C@@H]1CCC[C@H]1C(C#N)(c1ccccc1F)C1CCN(CCCOc2ccc(C#N)cc2)CC1` (mixture of isomers) [compound 309, rac-(1R,2S)-2-(cyano(1-(3-(4-cyanophenoxy)propyl)piperidin-4-yl)(2-fluorophenyl)methyl) cyclopentyl acetate], for which the concentration for half-maximal inhibition (IC50) is 11400 nM.
Under `N#Cc1ccc(OCCCN2CCC(C3(C4CCCC4)NCCc4ccc(F)cc43)CC2)cc1` (stereo not drawn) [compound 22, 4-(3-(4-(1-cyclopentyl-7-fluoro-1,2,3,4-tetrahydroisoquinolin-1-yl)piperidin-1-yl)propoxy)benzonitrile] stands 473 nM; under `Cc1nccn1CC(c1ccccc1)(C1CCCC1)C1CCN(CC2CN(c3ccc(S(=O)(=O)C4CC4)cc3)C2)CC1` (stereo not drawn) [compound 42, 4-(1-cyclopentyl-2-(2-methyl-1H-imidazol-1-yl)-1-phenylethyl)-1-((1-(4-(cyclopropylsulfonyl)phenyl)azetidin-3-yl)methyl)piperidine], 29 nM.
To `N#Cc1ccc(OCCCN2CCC(C(CO)(c3ccccc3)C3CCCC3)CC2)cc1` (stereo not drawn) [compound 37, 4-(3-(4-(1-cyclopentyl-2-hydroxy-1-phenylethyl)piperidin-1-yl)propoxy)benzonitrile] belongs 449 nM.
`N#Cc1ccc(OCCCN2CCC(C3(C4CCCC4)CNC(=O)c4ccccc43)CC2)cc1` (stereo not drawn) [compound 21, 4-(3-(4-(4-cyclopentyl-1-oxo-1,2,3,4-tetrahydroisoquinolin-4-yl)piperidin-1-yl)propoxy)benzonitrile]: the IC50 stood at 1100 nM.
Under `CNC(=O)O[C@@H]1CCC[C@H]1C(C#N)(c1ccccc1)C1CCN(CC2CN(c3ccc(S(=O)(=O)C4CC4)cc3)C2)CC1` (mixture of isomers) [compound 227, rac-(1R,2S)-2-(cyano(1-((1-(4-(cyclopropylsulfonyl)phenyl)azetidin-3-yl)methyl)piperidin-4-yl)(phenyl)methyl)cyclopentyl methylcarbamate] stands 498 nM; under `CN1CCc2ccccc2C1(C1CCCC1)C1CCN(CCCOc2ccc(C#N)cc2)CC1` (stereo not drawn) [compound 28, 4-(3-(4-(1-cyclopentyl-2-methyl-1,2,3,4-tetrahydroisoquinolin-1-yl)piperidin-1-yl)propoxy)benzonitrile], 379 nM; under `CC(=O)O[C@H]1CCC[C@@H]1C(C#N)(c1ccccc1)C1CCN(CC2CN(c3ccc(S(C)(=O)=O)cc3)C2)CC1` (mixture of isomers) [compound 183, rac-(1S,2R)-2-(cyano(1-((1-(4-(methylsulfonyl)phenyl)azetidin-3-yl)methyl)piperidin-4-yl)(phenyl)methyl)cyclopentyl acetate], 73 nM.
For the compound `CO[C@H]1CCC[C@@H]1C(C#N)(c1ccccc1)C1CCN(CCCOc2ccc(C#N)cc2)CC1` (stereo partly drawn) [compound 174, 4-(3-(4-(cyano((1R,2S)-2-methoxycyclopentyl)(phenyl)methyl)piperidin-1-yl)propoxy)benzonitrile], the IC50 came to 24600 nM.
To `COC[C@@H]1CCC[C@H]1C(C#N)(c1ccccc1)C1CCN(CC2CN(c3ccc(S(=O)(=O)C4CC4)cc3)C2)CC1` (mixture of isomers) [compound 266, rac-2-(1-((1-(4-(cyclopropylsulfonyl)phenyl)azetidin-3-yl)methyl)piperidin-4-yl)-2-((1R,2R)-2-(methoxymethyl)cyclopentyl)-2-phenylacetonitrile] belongs 4500 nM; to `COC(=O)[C@H]1CCC[C@@H]1C(C#N)(c1ccccc1)C1CCN(CC2CN(c3ccc(S(=O)(=O)C4CC4)cc3)C2)CC1` (mixture of isomers) [compound 332, methyl rac-(1S,2S)-2-(cyano(1-((1-(4-(cyclopropylsulfonyl)phenyl)azetidin-3-yl)methyl)piperidin-4-yl)(phenyl)methyl)cyclopentane-1-carboxylate], 261 nM; to `CC(=O)O[C@@H]1CCC[C@H]1C1(C2CCN(CCCOc3ccc(C#N)cc3)CC2)CN(C)Cc2ccc(F)cc21` (mixture of isomers) [compound 315, rac-(1R,2S)-2-(4-(1-(3-(4-cyanophenoxy)propyl)piperidin-4-yl)-6-fluoro-2-methyl-1,2,3,4-tetrahydroisoquinolin-4-yl)cyclopentyl acetate], 131 nM.
Turning to `COC(=O)N1Cc2ccccc2C(C2CCN(CCCOc3ccc(C#N)cc3)CC2)([C@H]2CCC[C@@H]2OC)C1` (mixture of isomers) [compound 324, methyl rac-4-(1-(3-(4-cyanophenoxy)propyl)piperidin-4-yl)-4-((1R,2S)-2-methoxycyclopentyl)-3,4-dihydroisoquinoline-2(1H)-carboxylate], the IC50 worked out at 9600 nM.
To `N#Cc1ccc(OCCCN2CCC(C3(CC4CCCCC4)NCCc4ccccc43)CC2)cc1` (stereo not drawn) [compound 251, 4-(3-(4-(1-(cyclohexylmethyl)-1,2,3,4-tetrahydroisoquinolin-1-yl)piperidin-1-yl)propoxy)benzonitrile] belongs 7100 nM; to `N#Cc1ccc(OCCCN2CCC(C3(Cc4ccccc4)NCCc4ccccc43)CC2)cc1` (stereo not drawn) [compound 243, 4-(3-(4-(1-benzyl-1,2,3,4-tetrahydroisoquinolin-1-yl)piperidin-1-yl)propoxy)benzonitrile], 4200 nM.
To `CCC(CC)C(=O)N1CCCCC1C1(C2CCN(CCCOc3ccc(C#N)cc3)CC2)CN(C)Cc2ccccc21` (stereo not drawn) [compound 301, 4-(3-(4-(4-(1-(2-ethylbutanoyl)piperidin-2-yl)-2-methyl-1,2,3,4-tetrahydroisoquinolin-4-yl)piperidin-1-yl)propoxy)benzonitrile] belongs 34800 nM.
To `CC(=O)N[C@@H]1CCC[C@H]1C(C#N)(c1ccccc1)C1CCN(CC2CN(c3ccc(C#N)cc3)C2)CC1` (mixture of isomers) [compound 383, rac-N-((1R,2S)-2-(cyano(1-((1-(4-cyanophenyl)azetidin-3-yl)methyl)piperidin-4-yl)(phenyl)methyl)cyclopentyl)acetamide] belongs 2500 nM.
Take `CC(C)C(=O)N1CCCCC1C1(C2CCN(CCCOc3ccc(C#N)cc3)CC2)CN(C)Cc2ccccc21` (stereo not drawn) [compound 300, 4-(3-(4-(4-(1-isobutyrylpiperidin-2-yl)-2-methyl-1,2,3,4-tetrahydroisoquinolin-4-yl)piperidin-1-yl)propoxy)benzonitrile]: the IC50 was determined as 56500 nM.
As for `CC(=O)O[C@H]1CCC[C@@H]1C1(C2CCN(CC3CN(c4ccc(S(=O)(=O)c5ccnc(C)c5)cc4)C3)CC2)CN(C)Cc2ccccc21` (mixture of isomers) [compound 202, rac-(1R,2S)-2-(2-methyl-4-(1-((1-(4-((2-methylpyridin-4-yl)sulfonyl)phenyl)azetidin-3-yl)methyl)piperidin-4-yl)-1,2,3,4-tetrahydroisoquinolin-4-yl)cyclopentyl acetate], the half-maximal inhibitory concentration (IC50) amounted to 113 nM.
To `COC(=O)N[C@@H]1CCC[C@H]1C(C#N)(c1ccccc1)C1CCN(CC2CN(c3ccc(S(=O)(=O)c4ccccc4)cc3)C2)CC1` (mixture of isomers) [compound 348, methyl (rac-(1R,2S)-2-(cyano(phenyl)(1-((1-(4-(phenylsulfonyl)phenyl)azetidin-3-yl)methyl)piperidin-4-yl)methyl)cyclopentyl) carbamate] belongs 819 nM; to `CC(=O)O[C@@H]1CCC[C@H]1C(C#N)(c1cccc(F)c1)C1CCN(CC2CN(c3ccc(S(=O)(=O)c4ccccc4)cc3)C2)CC1` (mixture of isomers) [compound 313, rac-(1R,2S)-2-(cyano(3-fluorophenyl)(1-((1-(4-(phenylsulfonyl)phenyl)azetidin-3-yl)methyl)piperidin-4-yl)methyl)cyclopentyl acetate], 13800 nM.
